Measured values: the supplement of paper PMC4862054

Columns and labels:
Assay in all cases: normalised viability (% of control), CellTiter-Blue; higher = more viable cells (about 100 = DMSO control)
BT-549 [1] = settings: 100 nM; incubation time: 72 h
Description: (§1)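 DSRT, CellTiter-Blue viability, 72 h incubation. Signal is normalised to DMSO and benzethonium chloride controls. Value is the normalised response at dose 3.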

CAL-120 [2] = settings: 100 nM; incubation time: 72 h
Description: as §1

DU-4475 [3] = settings: 10 nM; incubation time: 72 h
Description: as §1

HCC1937 [4] = settings: 100 nM; incubation time: 72 h
Description: as §1

HDQ-P1 [5] = settings: 10 nM; incubation time: 72 h
Description: as §1

MDA-MB-231 [6] = settings: 100 nM; incubation time: 72 h
Description: as §1

MDA-MB-468 [7] = settings: 100 nM; incubation time: 72 h
Description: as §1

SK-BR-3 [8] = settings: 100 nM; incubation time: 72 h
Description: as §1

BT-474 = settings: incubation time: 72 h
Procedure, shortened: (§2)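 Breast cancer cell lines in 20 µl suspension were seeded onto 384-well plates pre-loaded with compound dissolved in 5 µl medium, then incubated 72 h. CellTiter-Blue reagent (2.5 µl) was added for 2 h at 37 °C and fluorescence read at 560/590 nm. Each plate was normalised to vehicle (100) and a positive kill control (0), with Z'-factor quality control. The value is normalised viability at one listed concentration of the series.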

BT-549 [9] = settings: incubation time: 72 h
Procedure, shortened: as §2

CAL-120 [10] = settings: incubation time: 72 h
Procedure, shortened: as §2

CAL-148 = settings: incubation time: 72 h
Procedure, shortened: as §2

CAL-51 = settings: incubation time: 72 h
Procedure, shortened: as §2

CAL-85-1 = settings: incubation time: 72 h
Procedure, shortened: as §2

DU-4475 [11] = settings: incubation time: 72 h
Procedure, shortened: as §2

HCC1143 = settings: incubation time: 72 h
Procedure, shortened: as §2

HCC1599 = settings: incubation time: 72 h
Procedure, shortened: as §2

HCC1937 [12] = settings: incubation time: 72 h
Procedure, shortened: as §2

HDQ-P1 [13] = settings: incubation time: 72 h
Procedure, shortened: as §2

Hs578T = settings: incubation time: 72 h
Procedure, shortened: as §2

MDA-MB-231 [14] = settings: incubation time: 72 h
Procedure, shortened: as §2

MDA-MB-436 = settings: incubation time: 72 h
Procedure, shortened: as §2

MDA-MB-453 = settings: incubation time: 72 h
Procedure, shortened: as §2

MDA-MB-468 [15] = settings: incubation time: 72 h
Procedure, shortened: as §2

MFM-223 = settings: incubation time: 72 h
Procedure, shortened: as §2

SK-BR-3 [16] = settings: incubation time: 72 h
Procedure, shortened: as §2

C[C@]1(c2nc3c(C(N)=O)cccc3[nH]2)CCCN1 [Veliparib]
Settings | normalised viability [%]
BT-549 [1] | 104
CAL-120 [2] | 74.8
DU-4475 [3] | 98.2
HCC1937 [4] | 85.4
HDQ-P1 [5] | 103
MDA-MB-231 [6] | 92.3
MDA-MB-468 [7] | 97.6
SK-BR-3 [8] | 72.5

normalised viability [%]
Settings | 3 nM | 10 nM | 30 nM | 100 nM | 1000 nM | 10000 nM
BT-474 | – | 101 | – | – | 103 | 104
BT-549 [9] | – | 95.3 | – | – | 112 | 81.7
CAL-51 | 114 | – | 105 | 106 | – | –
CAL-85-1 | 87.9 | – | 84.9 | 84.7 | – | –
CAL-120 [10] | – | 81.7 | – | – | 77 | 70.2
CAL-148 | 89.3 | – | 86.4 | 85.6 | – | –
DU-4475 [11] | 78.6 | – | 78.3 | 83.4 | – | –
HCC1143 | – | 66.6 | – | – | 76.4 | 75.3
HCC1599 | – | 100 | – | – | 98.3 | 100
HCC1937 [12] | – | 72.2 | – | – | 70 | 61.7
HDQ-P1 [13] | 85.6 | – | 93.3 | 95.9 | – | –
Hs578T | – | 101 | – | – | 99.9 | 100
MDA-MB-231 [14] | – | 80.8 | – | – | 90.3 | 94.8
MDA-MB-436 | – | 83.3 | – | – | 89.1 | 84.6
MDA-MB-453 | 109 | – | 98.9 | 94.4 | – | –
MDA-MB-468 [15] | – | 113 | – | – | 105 | 98.9
MFM-223 | – | 88.1 | – | – | 90.3 | 103
SK-BR-3 [16] | – | 93.8 | – | – | 93.6 | 84.6
